Source: patent publication US20170055524A1, “Aqueous Adjuvant Composition For Increasing The Efficacy Of Electrolyte Active Substances” (priority 2014, published 2017)

Legend:
apple leaf cuticles [1] = test: Membrane penetration test, penetration of 2,4-D DMA with antagonistic calcium; type: in vitro ADME; conditions: 2,4-D DMA alone, 5 g/L ai; 177 ppm Ca; 25° C./56% rel. air humidity
Method: (§1) The potential of the C8/10 glucamide, which is independent of the surfactant action, to promote foliar absorption of active agrochemical ingredients was determined in membrane penetration tests with apple or pear leaf cuticles. […] The stomata-free cuticles were first dried under air and then installed into stainless steel diffusion cells. After application to the original upper side of the leaf and evaporation of the test liquid, i.e. of the aqueous preparations of the active ingredients without or with the C8/10-glucamide-containing spray liquids or comparative compositions, the diffusion cells were transferred into thermostatted blocks and charged with aqueous liquid. The water used to make up the aqueous test liquids was local tap water (of known composition). At regular intervals, samples were taken and, irrespective of the test system, the proportion of active ingredient penetrated was determined either by HPLC or scintillation measurement. […] In all other HPLC variants, only an aliquot was taken. During the experiment, the temperature in the system (block, diffusion cells, liquids, etc.) and the air humidity above the spray coating on the cuticle were known exactly and were monitored. […] The analytical determination was effected either by means of HPLC (1290 Infinity, Agilent) or analysis of radioactivity (Tricarb, Perkin Elmer). […]

apple leaf cuticles [2] = test: Membrane penetration test, penetration of MCPA (potassium salt); type: in vitro ADME; conditions: MCPA potassium alone, 1.0 g/L ai in spray liquid; 25° C./56% rel. air humidity
Method: as §1

apple leaf cuticles [3] = test: Membrane penetration test, penetration of sulcotrione; type: in vitro ADME; conditions: sulcotrione alone, 0.2 g/L ai; 20° C./60% rel. air humidity
Method: as §1

apple leaf cuticles [4] = test: Membrane penetration test, penetration of dicamba (acid); conditions: dicamba (acid) alone, 1.0 g/L ai; normal tap water (85 ppm Ca); 20° C./60% rel. air humidity
Text: The stomata-free cuticles were first dried under air and then installed into stainless steel diffusion cells. […] The water used to make up the aqueous test liquids was local tap water (of known composition). […] In each case, the geometric mean values of the penetration for intact membranes at the mean measurement times are given.

Structure (SMILES): CNC.O=C(O)COc1ccc(Cl)cc1Cl [2,4-D DMA, 2,4-D]
- Mean penetration of 2,4-D DMA after 4 h (apple leaf cuticles [1]): 0.2%
- Mean penetration of 2,4-D DMA after 1 day (apple leaf cuticles [1]): 0.3%

Structure (SMILES): Cc1cc(Cl)ccc1OCC(=O)[O-].[K+] [MCPA potassium, MCPA]
- Mean penetration of MCPA (potassium salt) after 4 h (apple leaf cuticles [2]): 1.6%
- Mean penetration of MCPA (potassium salt) after 1 day (apple leaf cuticles [2]): 7.2%

Structure (SMILES): CS(=O)(=O)c1ccc(C(=O)C2C(=O)CCCC2=O)c(Cl)c1 [Sulcotrione, sulcotrione]
- Mean penetration of sulcotrione after 5 h (apple leaf cuticles [3]): <1%
- Mean penetration of sulcotrione after 1 day (apple leaf cuticles [3]): <1%

Structure (SMILES): COc1c(Cl)ccc(Cl)c1C(=O)O [Dicamba (acid), dicamba]
- Mean penetration of dicamba (acid) after 5 h (apple leaf cuticles [4]): 4.4%
- Mean penetration of dicamba (acid) after 1 day (apple leaf cuticles [4]): 12.4%
